Data as given in US11771636B2, “Composition for promoting hair growth comprising adiponectin-derived peptide” (JUNGJINHO EFFECT INC., priority 2018, dated 2023).

What was measured:
[1] = tested on: human hair follicles-derived dermal papilla cells; experiment: MTT cell division and activation in dermal papilla cells; assay type: cell-based; settings: peptide 0.5 μg/ml and 5 μg/ml, 48 hours, minoxidil 1 mM positive control
Procedure: (§1) Primary cultured human hair follicles-derived dermal papilla cells and outer root sheath cells were subcultured to passages 2 to 3, and then treated with minoxidil, which has been conventionally used as an agent for preventing hair loss and treating hair growth as a positive control at a concentration of 1 mM, and separately treated with the adiponectin-derived peptide of the present invention prepared in Example 1 at concentrations of 0.5 μg/ml and 5 μg/ml. After 48 hours, the activated living cells were stained with an MTT solution and compared with a negative control group, and the degree of division and activation of the cells was confirmed.

[2] = tested on: human hair follicles-derived outer root sheath cells; experiment: MTT cell division and activation in outer root sheath cells; assay type: cell-based; settings: peptide 0.5 μg/ml and 5 μg/ml, 48 hours, minoxidil 1 mM positive control
Procedure: as §1

| Substance | cell division of dermal papilla cells [1] | cell division of outer root sheath cells [2] |
| --- | --- | --- |
| NIPGL (P10 peptide from adiponectin (NIPGL)) [adiponectin-derived 5-mer peptide] | more excellent effect than minoxidil | more excellent effect than minoxidil |
| GLYYF (P5 peptide from adiponectin (GLYYF)) [adiponectin-derived 5-mer peptide] | more excellent effect than minoxidil | more excellent effect than minoxidil |
